# Measured values taken from ChEMBL document CHEMBL5352401, “Novel cudraisoflavone J derivatives as potent neuroprotective agents for the treatment of Parkinson's disease via the activation of Nrf2/HO-1 signaling” (Eur J Med Chem, 2022).
# pIC50: −log10 of the molar value. Calls of active or inactive are those of the source. The calls are words filed in the database; no cut-off is given here.
# Legend:
# [1] = tested on: PC-12; experiment: Neuroprotective activity against 6-OHDA-induced cytotoxicity in rat PC-12 cells at 10 to 30 uM for 4 hrs followed by exposure to 6-OHDA measured after 24 hrs by MTT assay; type: functional, cell-based; settings: dose 10-30 µM, time 28.0 hrs
# [2] = tested on: PC-12; experiment: Cytotoxicity in rat PC-12 cells assessed as cell viability measured at 10 to 30 uM for 24 hrs by MTT assay; type: functional, cell-based; settings: dose 10-30 µM
# [3] = tested on: PC-12; experiment: Cytotoxicity in rat PC-12 cells assessed as cell viability measured at 30 uM for 24 hrs by MTT assay; type: functional, cell-based
# [4] = tested on: PC-12; experiment: Cytotoxicity in rat PC-12 cells assessed as cell viability incubated at 0.1 to 30 uM for 24 hrs by MTT assay relative to control; type: functional; settings: dose 0.1-30 µM
# [5] = tested on: PC-12; experiment: Neuroprotective activity against 6-OHDA-induced cytotoxicity in rat PC-12 cells at 0.1 to 30 uM for 4 hrs followed by exposure to 6-OHDA measured after 24 hrs by MTT assay relative to control; type: functional; settings: dose 0.1-30 µM, time 28 hrs
# [6] = tested on: PC-12; experiment: Neuroprotective activity against 6-OHDA-induced cytotoxicity in rat PC-12 cells for 4 hrs followed by exposure to 6-OHDA measured after 24 hrs by MTT assay; type: functional, cell-based; settings: dose 0.1-30 µM, time 28.0 hrs
# [7] = tested on: PC-12; experiment: Neuroprotective activity against 6-OHDA-induced cytotoxicity in rat PC-12 cells at 30 uM for 4 hrs followed by exposure to 6-OHDA measured after 24 hrs by MTT assay; type: functional, cell-based; settings: time 28.0 hrs
# [8] = tested on: PC-12; experiment: Upregulation of HO-1 expression in si-RNA mediated Nrf2 knock down rat PC-12 cells measured by immunoblotting analysis; type: functional, cell-based
# [9] = target: T1, Nuclear factor erythroid 2-related factor 2 (Rattus norvegicus) (UniProt O54968); experiment: Induction of Nrf2 nuclear translocation in rat PC12 cells at 10 uM for 3 hrs by Western blotting analysis; type: cell-based; settings: PC-12, filed as activator
# T1 sequence (whole entry): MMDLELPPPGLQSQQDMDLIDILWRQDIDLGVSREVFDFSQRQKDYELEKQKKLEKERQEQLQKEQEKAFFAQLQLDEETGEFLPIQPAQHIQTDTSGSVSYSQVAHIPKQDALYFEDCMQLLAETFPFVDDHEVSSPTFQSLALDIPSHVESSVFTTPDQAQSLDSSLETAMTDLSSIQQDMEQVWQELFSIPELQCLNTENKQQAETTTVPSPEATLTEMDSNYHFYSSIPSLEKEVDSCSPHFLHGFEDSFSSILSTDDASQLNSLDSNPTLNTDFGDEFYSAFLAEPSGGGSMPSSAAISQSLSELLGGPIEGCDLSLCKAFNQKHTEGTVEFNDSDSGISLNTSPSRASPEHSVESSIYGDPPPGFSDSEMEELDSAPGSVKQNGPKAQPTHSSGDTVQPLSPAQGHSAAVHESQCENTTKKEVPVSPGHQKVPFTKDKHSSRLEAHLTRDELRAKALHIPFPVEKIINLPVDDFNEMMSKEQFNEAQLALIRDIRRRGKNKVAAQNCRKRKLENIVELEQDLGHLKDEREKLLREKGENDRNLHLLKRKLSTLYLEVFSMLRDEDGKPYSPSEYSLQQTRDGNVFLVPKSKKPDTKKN
# [10] = target: KEAP1/NRF2 (Rattus norvegicus) (UniProt O54968+P57790); experiment: Inhibition of Nrf2-Keap1 protein-protein interaction in rat PC-12 cells by Western blotting analysis; type: cell-based
# [11] = tested on: PC-12; experiment: Neuroprotective activity in rat PC-12 cells assessed as upregulation of HO-1 expression measured for 6 hrs by immunoblotting analysis; type: functional, cell-based; settings: dose 1-30 µM
# [12] = target: T1, Nuclear factor erythroid 2-related factor 2 (Rattus norvegicus); experiment: Induction of Nrf2 nuclear translocation in rat PC12 cells assessed as increase in phosphorylation of ERK1 pretreated with U0126 for 2 hrs followed by compound addition at 10 uM for 2 to 3 hrs by Western blotting analysis; type: cell-based; settings: PC-12, time 2-3 hrs
# [13] = target: T1, Nuclear factor erythroid 2-related factor 2 (Rattus norvegicus); experiment: Induction of Nrf2 nuclear translocation in rat PC12 cells assessed as increase in phosphorylation of ERK2 at 10 uM for 2 to 3 hrs by Western blotting analysis; type: cell-based; settings: PC-12, filed as activator, time 2-3 hrs
# [14] = tested on: PC-12; experiment: Antiinflammatory activity in rotenone induced cytotoxicity in rat PC-12 cells assessed as reduction of ROS production pretreated at 10 to 30 uM for 4 hrs followed by rotenone addition treated for 6 hrs measured after 1 hr of H2-DCFDA addition by measuring fluorescence; type: functional, cell-based; settings: dose 10-30 µM, time 11.0 hrs
# [15] = target: T1, Nuclear factor erythroid 2-related factor 2 (Rattus norvegicus); experiment: Induction of Nrf2 nuclear translocation in rat PC12 cells assessed as increase in phosphorylation of ERK1 at 10 uM for 2 to 3 hrs by Western blotting analysis; type: cell-based; settings: PC-12, filed as activator, time 2-3 hrs
# [16] = tested on: PC-12; experiment: Reversal of upregulation of HO-1 in rat PC-12 cells pretreated with LY294002 for 2 hrs followed by compound addition at 10 uM for 2 to 3 hrs by Western blotting analysis; type: functional, cell-based; settings: time 2-3 hrs
# [17] = tested on: PC-12; experiment: Cytotoxicity in rat PC-12 cells assessed as cell viability incubated for 24 hrs by MTT assay; type: functional, cell-based; settings: PC-12, 24 h
# [18] = target: T1, Nuclear factor erythroid 2-related factor 2 (Rattus norvegicus); experiment: Induction of Nrf2 nuclear translocation in rat PC12 cells assessed as increase in phosphorylation of JNK at 10 uM for 2 to 3 hrs by Western blotting analysis; type: cell-based; settings: PC-12, filed as activator, time 2-3 hrs
# [19] = tested on: PC-12; experiment: Antiinflammatory activity in rotenone induced cytotoxicity in rat PC-12 cells assessed as reduction of fluorescence signal pretreated at 10 to 30 uM for 4 hrs followed by rotenone addition treated for 6 hrs measured after 1 hr of H2-DCFDA addition by spectrophotometric analysis; type: functional, cell-based; settings: dose 10-30 µM, time 11.0 hrs
# [20] = target: T1, Nuclear factor erythroid 2-related factor 2 (Rattus norvegicus); experiment: Induction of Nrf2 nuclear translocation in rat PC12 cells assessed as change in phosphorylation of p38 MAPK level at 10 uM for 2 to 3 hrs by Western blotting analysis; type: cell-based; settings: PC-12, time 2-3 hrs
# [21] = tested on: Brain; experiment: Antioxidant activity in Fe2+/L-ascorbic acid induced Sprague-Dawley rat brain homogenate assessed as inhibition of lipid peroxide production measured at 100 uM after 60 mins by microplate reader method relative to control; type: functional, tissue-based
# [22] = tested on: PC-12; experiment: Reversal of upregulation of HO-1 in rat PC-12 cells pretreated with SP600125 for 2 hrs followed by compound addition at 10 uM for 2 to 3 hrs by Western blotting analysis; type: functional, cell-based; settings: time 2-3 hrs
# [23] = target: T1, Nuclear factor erythroid 2-related factor 2 (Rattus norvegicus); experiment: Inhibition of Nrf2 nuclear translocation in rat PC12 cells assessed as increase in phosphorylation of p38 MAPK pretreated with SB203580 for 2 hrs followed by compound addition at 10 uM for 2 to 3 hrs by Western blotting analysis; type: cell-based; settings: PC-12, time 2-3 hrs
# [24] = tested on: PC-12; experiment: Reversal of upregulation of HO-1 in rat PC-12 cells pretreated with U0126 for 2 hrs followed by compound addition at 10 uM for 2 to 3 hrs by Western blotting analysis; type: functional, cell-based; settings: time 2-3 hrs
# [25] = tested on: PC-12; experiment: Antiinflammatory activity in 6-OHDA-induced cytotoxicity in rat PC-12 cells assessed as reduction of ROS production pretreated at 10 to 30 uM for 4 hrs followed by 6-OHDA addition treated for 6 hrs measured after 1 hr of H2-DCFDA addition by measuring fluorescence; type: functional, cell-based; settings: dose 10-30 µM, time 11.0 hrs
# [26] = tested on: PC-12; experiment: Antiinflammatory activity in 6-OHDA-induced cytotoxicity in rat PC-12 cells assessed as reduction of fluorescence signal pretreated at 10 to 30 uM for 4 hrs followed by 6-OHDA addition treated for 6 hrs measured after 1 hr of H2-DCFDA addition by spectrophotometric analysis; type: functional, cell-based; settings: dose 10-30 µM, time 11.0 hrs
# [27] = Neurotoxicity in rotenone induced at rat PC-12 cells assessed as cell viability at 30 uM pretreated for 4 hrs followed by rotenone addition measured after 24 hrs by MTT assay (reference value: 53.4 +/- 2.6%); type: toxicity, cell-based; settings: time 28 hrs, read-out: Activity
# [28] = target: T1, Nuclear factor erythroid 2-related factor 2 (Rattus norvegicus); experiment: Induction of Nrf2 nuclear translocation in rat PC12 cells assessed as increase in phosphorylation of ERK2 pretreated with U0126 for 2 hrs followed by compound addition at 10 uM for 2 to 3 hrs by Western blotting analysis; type: cell-based; settings: PC-12, time 2-3 hrs
# [29] = tested on: PC-12; experiment: Neuroprotective activity in rat PC-12 cells assessed as fold increase in upregulation of HO-1 expression measured at 30 uM for 6 hrs by immunoblotting analysis; type: functional
# [30] = Neurotoxicity in rotenone induced at rat PC-12 cells assessed as cell viability pretreated with compound for 4 hrs followed by rotenone addition measured after 24 hrs by MTT assay; type: toxicity, cell-based
# [31] = tested on: PC-12; experiment: Cytotoxicity in 6-OHDA induced rat PC-12 cells assessed as cell viability pretreated with ZnPP for 30 mins followed by compound addition at 10 uM for 4 hrs and measured after 24 hrs of […] addition by MTT assay; type: functional, cell-based; settings: time 28.0 hrs
# [32] = target: T1, Nuclear factor erythroid 2-related factor 2 (Rattus norvegicus); experiment: Induction of Nrf2 nuclear translocation in rat PC12 cells assessed as increase in phosphorylation of AKT at 10 uM for 2 to 3 hrs by Western blotting analysis; type: cell-based; settings: PC-12, filed as activator, time 2-3 hrs
# [33] = tested on: PC-12; experiment: Neuroprotective activity in rat PC-12 cells assessed as upregulation of HO-1 expression measured at 10 uM after 3 to 6 hrs by immunoblotting analysis; type: functional, cell-based; settings: time 3-6 hrs
# [34] = target: T1, Nuclear factor erythroid 2-related factor 2 (Rattus norvegicus); experiment: Induction of Nrf2 nuclear translocation in rat PC12 cells assessed as increase in phosphorylation of Akt pretreated with LY294002 for 2 hrs followed by compound addition at 10 uM for 2 to 3 hrs by Western blotting analysis; type: cell-based; settings: PC-12, time 2-3 hrs
# [35] = target: T1, Nuclear factor erythroid 2-related factor 2 (Rattus norvegicus); experiment: Induction of Nrf2 nuclear translocation in rat PC12 cells assessed as increase in phosphorylation of JNK pretreated with SP600125 for 2 hrs followed by compound addition at 10 uM for 2 to 3 hrs by Western blotting analysis; type: cell-based; settings: PC-12, time 2-3 hrs
compound,measurement,setting,value
C#CCN[C@@H]1CCc2ccccc21,Activity,[1],Active
same,Activity,[2],Active
COc1ccc(-c2coc3cc(O)c4c(c3c2=O)OC(C)(C)C(O)C4)c(OC)c1 (centres undefined),Activity,[1],inactive
same,Activity,[2],inactive
CC1(C)Oc2c(c(O)cc3occ(-c4cccc(OC(F)(F)F)c4)c(=O)c23)CC1O (centres undefined),Activity,[2],Active
CCOc1ccc(-c2coc3cc4c(c(OCC)c3c2=O)C=CC(C)(C)O4)cc1,Activity,[3],Active
COc1ccc(-c2coc3cc(O)c4c(c3c2=O)OC(C)(C)CC4)cc1,Activity,[2],Active
CC(C)Oc1ccc(-c2coc3cc4c(c(O)c3c2=O)C=CC(C)(C)O4)cc1,Activity,[1],inactive
COc1cc(OC)cc(-c2coc3cc(O)c4c(c3c2=O)OC(C)(C)C(O)C4)c1 (centres undefined),Activity,[1],inactive
same,Activity,[2],inactive
Cc1cc(C)cc(-c2coc3cc(O)c4c(c3c2=O)OC(C)(C)C(O)C4)c1 (centres undefined),Activity,[4],73%
same,Activity,[2],Active
same,inhibition (INH),[5],45.4%
same,Activity,[6],Dose-Dependent Effect
same,Activity,[7],Active
CC(C)Oc1ccc(-c2coc3cc4c(c(OC(C)C)c3c2=O)C=CC(C)(C)O4)cc1,Activity,[3],Active
CC1(C)Oc2c(c(O)cc3occ(-c4ccc(F)cc4F)c(=O)c23)CC1O (centres undefined),Activity,[8],inactive
same,Activity,[9],Active
same,Activity,[1],Active
same,inhibition,[10],Active
same,Activity,[11],Dose-Dependent Effect
same,Activity,[12],inactive
same,Activity,[2],Active
same,Activity,[13],Active
same,Activity,[14],Active
same,Activity,[15],Active
same,Activity,[16],Active
same,pIC50,[17],5.38
same,Activity,[18],Active
same,Activity,[19],Active
same,Activity,[20],inactive
same,inhibition,[21],50.5%
same,Activity,[22],Active
same,inhibition,[23],Active
same,Activity,[24],Active
same,Activity,[25],Active
same,Activity,[6],Dose-Dependent Effect
same,Activity,[26],Active
same,viability at 30 µM,[27],≤ 79.9%
same,Activity,[28],inactive
same,fold change (FC),[29],1.5
same,pIC50,[30],5.33
same,Activity,[31],Active
same,Activity,[32],Active
same,Activity,[33],Active
same,Activity,[34],inactive
same,Activity,[35],inactive
COc1ccc(-c2coc3cc(OC)c4c(c3c2=O)OC(C)(C)C(O)C4)cc1 (centres undefined),Activity,[1],inactive
same,Activity,[2],inactive
